The values that follow come from ChEMBL document CHEMBL4138270, “Discovery of MK-8722: A Systemic, Direct Pan-Activator of AMP-Activated Protein Kinase” (ACS Med Chem Lett, 2018).

Data set [1] concerns the target AMPK alpha1/beta2/gamma1 (Homo sapiens) (UniProt O43741+P54619+Q13131). Nature of the data set: Activation of CaMKK2-phosphorylated AMPK4 alpha1/beta2/gamma1 (unknown origin) using fluorescein-labeled SAMS peptide as substrate pretreated for 30 mins in presence of AMP followed by substrate addition measured after 60 mins by fluorescence assay. The data set is classed as protein-complex assay.

A short description of data set [2]: Drug level in C57BL/6 eDIO mouse plasma at 30 mg/kg, po measured at 2 to 3 hrs post dose. The data set is classed as ADME, organism-based. The note with it: in vivo.
Data set [3] has as its target AMPK alpha2/beta2/gamma1 (Homo sapiens) (UniProt P54646+O43741+P54619). The data set is described as follows: Activation of CaMKK2-phosphorylated AMPK10 alpha2/beta2/gamma1 (unknown origin) assessed as ratio of 5-(6-chloro-5-(1-methyl-1H-indol-5-yl)-1H-benzo[d]imidazol-2-yloxy)-2-methylbenzoic acid maximum activation to test compound maximum activation at 50 uM using fluorescein-labeled SAMS peptide as substrate pretreated for 30 mins in presence of AMP followed by substrate addition measured after 60 mins by fluorescence assay relative to AMP. The data set is classed as protein-complex assay.

A short description of data set [4]: Drug level in C57BL/6 eDIO mouse plasma at 10 mg/kg, po measured at 2 to 3 hrs post dose. Format: ADME, organism-based. The note with it: in vivo.
Data set [5] concerns the target Amine oxidase [flavin-containing] B (Homo sapiens, UniProt P27338). The data set is described as follows: Activity at MAOB (unknown origin).
Data set [6] has as its target Sodium-dependent dopamine transporter (Homo sapiens) (UniProt Q01959). Nature of the data set: Activity at DAT (unknown origin).
For data set [7], the system named is Mus musculus. Nature of the data set: In vivo activation of AMPK1 in C57BL/6 db/+ mouse assessed as ratio of phosphorylated ACC to total ACC in liver at 30 mg/kg, po administered as single dose measured after 2 hrs by MSD electrochemiluminescence assay relative to control.
The target in data set [8] is AMPK alpha2/beta1/gamma1 (Homo sapiens) (UniProt P54646+P54619+Q9Y478). The data set is described as follows: Activation of CaMKK2-phosphorylated AMPK7 alpha2/beta1/gamma1 (unknown origin) using fluorescein-labeled SAMS peptide as substrate pretreated for 30 mins in presence of AMP followed by substrate addition measured after 60 mins by fluorescence assay. The data set is classed as protein-complex assay.

Data set [9] deals with Mus musculus. The data set is described as follows: Antidiabetic activity in C57BL/6 eDIO mouse assessed as reduction in blood glucose level at 10 to 30 mg/kg, po pretreated for 1 hr followed by glucose-challenge measured up to 90 mins in presence of xylose by OGTT. The data set is classed as functional, organism-based.
In data set [10] the target is 5'-AMP-activated protein kinase catalytic subunit alpha-2/beta-1/gamma-2 (Homo sapiens) (UniProt P54646+Q9UGJ0+Q9Y478). Nature of the data set: Activation of CaMKK2-phosphorylated AMPK8 alpha2/beta1/gamma2 (unknown origin) using fluorescein-labeled SAMS peptide as substrate pretreated for 30 mins in presence of AMP followed by substrate addition measured after 60 mins by fluorescence assay. Format: protein-complex assay.

Structures are written as SMILES. The source made the active and inactive calls. No cut-off for these calls is given here.

Chain of AMPK alpha2/beta2/gamma1 (Homo sapiens) (O43741 whole entry, looked up): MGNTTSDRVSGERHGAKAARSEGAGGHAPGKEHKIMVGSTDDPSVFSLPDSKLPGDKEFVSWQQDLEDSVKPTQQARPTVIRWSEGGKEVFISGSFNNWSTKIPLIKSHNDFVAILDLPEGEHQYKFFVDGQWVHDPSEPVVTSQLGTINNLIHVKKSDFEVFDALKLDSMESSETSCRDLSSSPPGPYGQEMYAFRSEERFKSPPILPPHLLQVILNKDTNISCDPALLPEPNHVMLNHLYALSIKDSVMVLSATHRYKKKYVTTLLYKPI
Chain of AMPK alpha2/beta2/gamma1 (Homo sapiens) (P54619 whole entry, looked up): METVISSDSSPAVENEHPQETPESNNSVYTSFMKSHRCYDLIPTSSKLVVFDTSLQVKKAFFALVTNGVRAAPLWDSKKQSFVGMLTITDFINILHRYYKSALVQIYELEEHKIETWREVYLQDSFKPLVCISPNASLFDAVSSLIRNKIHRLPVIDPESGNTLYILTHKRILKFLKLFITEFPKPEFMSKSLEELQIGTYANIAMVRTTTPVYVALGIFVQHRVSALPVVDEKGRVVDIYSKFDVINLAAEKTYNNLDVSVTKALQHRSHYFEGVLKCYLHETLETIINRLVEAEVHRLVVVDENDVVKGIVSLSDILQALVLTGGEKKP
Chain of AMPK alpha2/beta2/gamma1 (Homo sapiens) (P54646 whole entry, looked up): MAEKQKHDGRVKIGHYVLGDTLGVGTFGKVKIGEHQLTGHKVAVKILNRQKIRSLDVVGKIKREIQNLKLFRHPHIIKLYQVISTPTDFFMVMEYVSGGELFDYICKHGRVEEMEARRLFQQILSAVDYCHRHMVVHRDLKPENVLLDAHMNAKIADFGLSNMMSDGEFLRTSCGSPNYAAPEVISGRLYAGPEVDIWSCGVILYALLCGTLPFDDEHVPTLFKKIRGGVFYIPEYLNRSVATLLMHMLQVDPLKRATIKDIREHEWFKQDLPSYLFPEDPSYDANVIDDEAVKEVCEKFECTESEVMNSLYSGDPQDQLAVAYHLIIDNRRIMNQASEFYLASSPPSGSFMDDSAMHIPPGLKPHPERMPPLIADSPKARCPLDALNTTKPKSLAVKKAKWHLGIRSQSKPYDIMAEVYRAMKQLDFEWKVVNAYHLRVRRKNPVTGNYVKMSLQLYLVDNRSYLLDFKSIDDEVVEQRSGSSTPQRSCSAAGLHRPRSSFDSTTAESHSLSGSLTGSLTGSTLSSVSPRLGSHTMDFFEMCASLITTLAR
Chain of AMPK alpha1/beta2/gamma1 (Homo sapiens) (O43741 whole entry, looked up): as the sequence (O43741 whole entry, looked up) above
Chain of AMPK alpha1/beta2/gamma1 (Homo sapiens) (P54619 whole entry, looked up): as the sequence (P54619 whole entry, looked up) above
Chain of AMPK alpha1/beta2/gamma1 (Homo sapiens) (Q13131 whole entry, looked up): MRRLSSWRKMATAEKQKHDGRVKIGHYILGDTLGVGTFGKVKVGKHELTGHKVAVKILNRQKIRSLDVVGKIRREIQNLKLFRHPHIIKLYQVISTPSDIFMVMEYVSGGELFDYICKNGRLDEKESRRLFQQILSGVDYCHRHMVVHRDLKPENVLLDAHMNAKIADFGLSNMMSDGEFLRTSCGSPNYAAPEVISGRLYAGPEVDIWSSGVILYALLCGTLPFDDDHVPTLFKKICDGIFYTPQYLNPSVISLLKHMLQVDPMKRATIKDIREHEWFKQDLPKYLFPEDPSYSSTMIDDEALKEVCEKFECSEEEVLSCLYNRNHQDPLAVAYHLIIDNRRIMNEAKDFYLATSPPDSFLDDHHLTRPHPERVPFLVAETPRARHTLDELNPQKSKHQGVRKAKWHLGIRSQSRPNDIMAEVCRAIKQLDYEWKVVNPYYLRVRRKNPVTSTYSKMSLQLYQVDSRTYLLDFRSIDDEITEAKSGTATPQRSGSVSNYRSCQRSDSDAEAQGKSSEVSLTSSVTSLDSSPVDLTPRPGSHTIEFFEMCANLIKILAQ
Chain of 5'-AMP-activated protein kinase catalytic subunit alpha-2/beta-1/gamma-2 (Homo sapiens) (P54646 whole entry): as the sequence (P54646 whole entry, looked up) above
Chain of 5'-AMP-activated protein kinase catalytic subunit alpha-2/beta-1/gamma-2 (Homo sapiens) (Q9UGJ0 whole entry partner): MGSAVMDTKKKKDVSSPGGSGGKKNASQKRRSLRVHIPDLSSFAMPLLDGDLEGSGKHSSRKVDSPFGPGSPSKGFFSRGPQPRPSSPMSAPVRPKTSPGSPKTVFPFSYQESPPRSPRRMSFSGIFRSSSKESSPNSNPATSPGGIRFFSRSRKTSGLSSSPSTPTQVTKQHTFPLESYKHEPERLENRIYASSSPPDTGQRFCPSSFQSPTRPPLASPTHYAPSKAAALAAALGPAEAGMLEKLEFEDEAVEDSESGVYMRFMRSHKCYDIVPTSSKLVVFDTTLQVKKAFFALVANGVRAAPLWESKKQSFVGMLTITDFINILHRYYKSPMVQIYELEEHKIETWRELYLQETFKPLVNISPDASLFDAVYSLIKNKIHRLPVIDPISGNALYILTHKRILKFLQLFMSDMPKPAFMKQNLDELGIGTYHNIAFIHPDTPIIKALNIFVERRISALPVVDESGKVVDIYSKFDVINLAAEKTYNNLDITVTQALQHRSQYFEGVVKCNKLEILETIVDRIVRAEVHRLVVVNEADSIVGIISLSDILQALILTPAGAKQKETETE
Chain of 5'-AMP-activated protein kinase catalytic subunit alpha-2/beta-1/gamma-2 (Homo sapiens) (Q9Y478 2-270 partner limits assumed): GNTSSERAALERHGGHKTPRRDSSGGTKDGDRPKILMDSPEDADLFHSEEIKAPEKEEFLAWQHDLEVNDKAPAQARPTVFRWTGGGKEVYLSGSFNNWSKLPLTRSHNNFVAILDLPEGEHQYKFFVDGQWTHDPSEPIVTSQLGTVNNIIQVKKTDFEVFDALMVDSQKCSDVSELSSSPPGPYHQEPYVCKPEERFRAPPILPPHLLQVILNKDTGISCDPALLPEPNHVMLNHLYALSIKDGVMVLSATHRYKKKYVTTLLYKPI
Chain of Amine oxidase [flavin-containing] B (P27338 whole entry): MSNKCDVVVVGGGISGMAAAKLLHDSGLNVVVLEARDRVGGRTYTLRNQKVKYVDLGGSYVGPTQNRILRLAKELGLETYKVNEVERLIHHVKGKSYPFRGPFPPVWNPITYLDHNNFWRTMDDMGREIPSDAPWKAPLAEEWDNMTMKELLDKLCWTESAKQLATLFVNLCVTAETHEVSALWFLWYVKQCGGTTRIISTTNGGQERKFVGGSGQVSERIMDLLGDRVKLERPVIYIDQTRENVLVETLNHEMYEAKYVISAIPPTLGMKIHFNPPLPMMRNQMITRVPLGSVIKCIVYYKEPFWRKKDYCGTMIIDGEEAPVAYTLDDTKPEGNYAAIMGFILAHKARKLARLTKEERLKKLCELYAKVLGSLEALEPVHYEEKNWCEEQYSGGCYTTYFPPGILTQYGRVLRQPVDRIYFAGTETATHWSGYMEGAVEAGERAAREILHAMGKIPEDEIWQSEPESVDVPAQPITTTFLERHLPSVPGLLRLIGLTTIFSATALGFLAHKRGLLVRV
Chain of AMPK alpha2/beta1/gamma1 (Homo sapiens) (P54619 whole entry partner): as the sequence (P54619 whole entry, looked up) above
Chain of AMPK alpha2/beta1/gamma1 (Homo sapiens) (P54646 whole entry): as the sequence (P54646 whole entry, looked up) above
Chain of AMPK alpha2/beta1/gamma1 (Homo sapiens) (Q9Y478 2-270 partner limits assumed): as the sequence (Q9Y478 2-270 partner limits assumed) above
Chain of Sodium-dependent dopamine transporter (Homo sapiens) (Q01959 whole entry): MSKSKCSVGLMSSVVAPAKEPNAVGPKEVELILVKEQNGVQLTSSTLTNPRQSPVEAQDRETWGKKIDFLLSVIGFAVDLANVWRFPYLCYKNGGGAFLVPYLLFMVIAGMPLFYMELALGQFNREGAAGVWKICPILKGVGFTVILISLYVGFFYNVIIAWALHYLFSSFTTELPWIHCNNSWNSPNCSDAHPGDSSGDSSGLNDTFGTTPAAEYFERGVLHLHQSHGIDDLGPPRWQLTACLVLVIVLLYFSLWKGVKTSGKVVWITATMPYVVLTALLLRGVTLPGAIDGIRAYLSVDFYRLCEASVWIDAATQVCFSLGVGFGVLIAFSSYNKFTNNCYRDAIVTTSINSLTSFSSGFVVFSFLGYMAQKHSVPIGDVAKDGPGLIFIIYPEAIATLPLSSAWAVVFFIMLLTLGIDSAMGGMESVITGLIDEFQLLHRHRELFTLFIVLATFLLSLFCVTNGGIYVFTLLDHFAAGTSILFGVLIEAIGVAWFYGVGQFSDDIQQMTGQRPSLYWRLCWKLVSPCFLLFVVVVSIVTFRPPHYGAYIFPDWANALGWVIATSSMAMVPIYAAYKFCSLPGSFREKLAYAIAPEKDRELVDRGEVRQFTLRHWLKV

For `O[C@@H]1CO[C@H]2[C@@H]1OC[C@H]2Oc1nc2nc(-c3ccc(-c4ccccc4)cc3)c(Cl)cc2[nH]1`, the result (in [1]; in data set [8]; in the data set with Mus musculus [9]; in [10]) was Active. Moreover, the concentration came out at 59 µM in [2] and 18 µM in data set [4]. Also, the Ratio in [3] came to 1.9. The Activity in data set [5] and in [6] was 3 to 10 µM throughout. For the same compound, the “fold change (FC)” value in the data set on Mus musculus [7] was determined as 1.9.
